Experiment [1] deals with T1, recombinant F508del V470 CFTR in Fischer rat thyroid (FRT) cells (Homo sapiens, UniProt P13569, DEL508-508).
T1 construct: expressed in transfected cells
In words: FRT ion flux assay of F508del CFTR potentiation. It counts as cell-based. The conditions noted are these: FRT cells expressing F508del V470 CFTR, forskolin 20 uM, 27° C. pre-incubation. In a few lines:
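FRT cells co-expressing F508del V470 CFTR and halide-sensitive YFP, temperature-corrected at 27° C for 16-24 h, then treated 30 min with compound plus 20 uM forskolin. Iodide addition quenches YFP, read after ~21 s; ratio scaled to DMSO (0%) and positive control potentiator (100%).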

The target of experiment [2] is T2, CFTR in F508del/F508del primary CF hBE cells (Homo sapiens, UniProt P13569, DEL508-508).
T2 construct: Primary cystic fibrosis human bronchial epithelial (CF hBE) cells were expanded and cultured; endogenous in cells; host or cells: primary CF human bronchial epithelial cells, genotype F508del/F508del
T2 sequence (P13569 with tags, fused parts or gaps DEL508-508): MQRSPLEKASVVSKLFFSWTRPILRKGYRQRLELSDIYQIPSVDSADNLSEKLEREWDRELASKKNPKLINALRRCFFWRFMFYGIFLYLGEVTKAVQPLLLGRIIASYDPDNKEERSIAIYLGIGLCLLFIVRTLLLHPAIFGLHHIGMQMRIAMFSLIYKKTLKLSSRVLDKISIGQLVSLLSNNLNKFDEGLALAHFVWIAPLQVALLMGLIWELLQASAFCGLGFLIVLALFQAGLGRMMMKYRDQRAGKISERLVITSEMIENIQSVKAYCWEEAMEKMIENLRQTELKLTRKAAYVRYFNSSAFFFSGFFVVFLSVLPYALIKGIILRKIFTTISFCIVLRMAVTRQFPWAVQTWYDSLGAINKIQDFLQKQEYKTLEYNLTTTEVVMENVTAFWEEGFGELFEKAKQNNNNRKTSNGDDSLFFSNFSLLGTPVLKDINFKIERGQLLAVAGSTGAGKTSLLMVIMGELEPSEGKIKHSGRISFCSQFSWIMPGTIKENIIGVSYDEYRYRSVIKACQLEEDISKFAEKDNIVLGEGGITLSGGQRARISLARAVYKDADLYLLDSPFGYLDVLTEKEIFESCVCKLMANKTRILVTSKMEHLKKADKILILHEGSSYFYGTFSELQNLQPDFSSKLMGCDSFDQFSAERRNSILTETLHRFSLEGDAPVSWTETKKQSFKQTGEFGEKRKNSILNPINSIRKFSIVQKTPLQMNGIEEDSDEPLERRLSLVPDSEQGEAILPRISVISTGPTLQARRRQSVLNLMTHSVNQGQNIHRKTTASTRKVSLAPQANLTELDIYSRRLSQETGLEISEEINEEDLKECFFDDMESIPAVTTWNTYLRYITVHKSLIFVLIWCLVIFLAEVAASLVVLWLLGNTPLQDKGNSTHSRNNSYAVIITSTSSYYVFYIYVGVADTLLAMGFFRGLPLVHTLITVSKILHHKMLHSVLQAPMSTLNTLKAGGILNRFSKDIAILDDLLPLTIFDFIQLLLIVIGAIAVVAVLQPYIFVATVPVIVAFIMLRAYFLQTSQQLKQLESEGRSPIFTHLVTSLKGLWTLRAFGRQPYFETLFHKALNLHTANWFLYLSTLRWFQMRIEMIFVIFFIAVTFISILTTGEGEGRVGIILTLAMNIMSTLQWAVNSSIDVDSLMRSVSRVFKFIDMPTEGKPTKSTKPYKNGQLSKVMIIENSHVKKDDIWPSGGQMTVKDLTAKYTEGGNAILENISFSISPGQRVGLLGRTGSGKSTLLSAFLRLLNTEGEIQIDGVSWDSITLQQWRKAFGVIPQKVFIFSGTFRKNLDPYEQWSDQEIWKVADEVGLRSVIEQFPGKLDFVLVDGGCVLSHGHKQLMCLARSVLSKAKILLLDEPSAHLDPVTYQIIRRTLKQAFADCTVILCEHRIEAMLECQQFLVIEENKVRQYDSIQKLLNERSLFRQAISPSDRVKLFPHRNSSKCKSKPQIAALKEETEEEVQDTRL
In words: Ussing chamber electrophysiology assay of CFTR potentiation in F508del/F508del CF bronchial epithelial cells (27° C.). The experiment is classed as cell-based. Summed up:
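Well-differentiated primary CF hBE cells (>30 days air/liquid interface) in Ussing chambers, HEPES saline both sides, voltage clamped to zero. Amiloride 30 uM, forskolin 10 uM, four rising compound concentrations, then CFTRinh-172 20 uM added at 20-25 min intervals. Short-circuit current scaled to DMSO (0%) and a positive control potentiator maximum (100%).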

This is an account of results in patent US12612409B2, “Pyrrolopyrimidines as CFTR potentiators” (Cystic Fibrosis Foundation, priority 2016, dated 2026).

The structures appear in SMILES notation.

T1 sequence (P13569 with tags, fused parts or gaps DEL508-508): as above

`CCC(c1cn(-c2ccc(F)cc2F)nn1)n1cc(-c2cnc(OC)c(F)c2)c2c(N)ncnc21` (single isomer, unassigned; enantiomer 1) [Example 165, 7-{1-[1-(2,4-Difluorophenyl)-1H-1,2,3-triazol-4-yl]propyl}-5-(5-fluoro-6-methoxypyridin-3-yl)-7H-pyrrolo[2,3-d]pyrimidin-4-amine, enantiomer 1]: the values for the EC50 in experiment [1] and in experiment [2] were 728 nM and 247 nM, respectively.

On to `CCC(c1cn(-c2ccc(F)cc2F)nn1)n1cc(-c2cnc(C(F)F)nc2)c2c(N)ncnc21` (single isomer, unassigned; enantiomer 1) [Example 167, 5-[2-(Difluoromethyl)pyrimidin-5-yl]-7-{1-[1-(2,4-difluorophenyl)-1H-1,2,3-triazol-4-yl]propyl}-7H-pyrrolo[2,3-d]pyrimidin-4-amine, enantiomer 1], for which the EC50 worked out at 25 nM in experiment [1] and 50.5 nM in experiment [2].

As to `CCC(c1cn(-c2cccc(F)c2F)nn1)n1cc(-c2cc(F)cnc2OC)c2c(N)ncnc21` (single isomer, unassigned; enantiomer 1) [Example 169, 7-{1-[1-(2,3-Difluorophenyl)-1H-1,2,3-triazol-4-yl]propyl}-5-(5-fluoro-2-methoxypyridin-3-yl)-7H-pyrrolo[2,3-d]pyrimidin-4-amine, enantiomer 1], the values for the EC50 in experiment [1] and in experiment [2] were 7.98 nM and 4.9 nM, respectively.

As to `CCC(c1cn(-c2cc(F)ccc2F)nn1)n1cc(-c2cc(F)cnc2OC)c2c(N)ncnc21` (single isomer, unassigned; enantiomer 1) [Example 171, 7-{1-[1-(2,5-Difluorophenyl)-1H-1,2,3-triazol-4-yl]propyl}-5-(5-fluoro-2-methoxypyridin-3-yl)-7H-pyrrolo[2,3-d]pyrimidin-4-amine, enantiomer 1], the EC50 in experiment [1] was determined as 11.7 nM; in experiment [2], 3.87 nM.

As to `CCC(c1cn(-c2ccccc2F)nn1)n1cc(C2CC2)c2c(N)ncnc21` (single isomer, unassigned; enantiomer 1) [Example 173, (−) 5-Cyclopropyl-7-{1-[1-(2-fluorophenyl)-1H-1,2,3-triazol-4-yl]propyl}-7H-pyrrolo[2,3-d]pyrimidin-4-amine, enantiomer 1], the EC50 in experiment [1] amounted to 29.3 nM; in experiment [2], 26.7 nM.

`COc1ncncc1-c1cn(C(c2cn(-c3ccccc3F)nn2)C2CC2)c2ncnc(N)c12` (single isomer, unassigned; enantiomer 1) [Example 174, (+) 7-{Cyclopropyl[1-(2-fluorophenyl)-1H-1,2,3-triazol-4-yl]methyl}-5-(4-methoxypyrimidin-5-yl)-7H-pyrrolo[2,3-d]pyrimidin-4-amine, enantiomer 1]: the EC50 in experiment [1] is 19.6 nM; in experiment [2] it was 31.5 nM.

Regarding `CCC(c1cnn(-c2ccccc2F)c1)n1cc(-c2cnc(C(F)(F)F)nc2)c2c(N)ncnc21` (single isomer, unassigned; enantiomer 1) [Example 175, 7-{(1-[1-(2-Fluorophenyl)-1H-pyrazol-4-yl]propyl}-5-[2-(trifluoromethyl)pyrimidin-5-yl]-7H-pyrrolo[2,3-d]pyrimidin-4-amine, enantiomer 1], the EC50 in experiment [1] was determined as 9.89 nM; in experiment [2], 8 nM.

As for `CCC(c1c[nH]c(-c2ccc(F)cc2F)n1)n1cc(-c2cnc(C(F)(F)F)nc2)c2c(N)ncnc21` (single isomer, unassigned; enantiomer 1) [Example 177, 7-{1-[2-(2,4-Difluorophenyl)-2H-imidazol-4-yl]propyl}-5-[2-(trifluoromethyl)pyrimidin-5-yl]-7H-pyrrolo[2,3-d]pyrimidin-4-amine, enantiomer 1], the EC50 in experiment [1] was 21.6 nM; in experiment [2], 18.9 nM.

Consider `Cc1c(C(C)n2cc(-c3cnc(C(F)(F)F)nc3)c3c(N)ncnc32)nnn1-c1ccccc1F` (single isomer, unassigned; enantiomer 1) [Example 179, 7-{1-[1-(2-Fluorophenyl)-5-methyl-1H-1,2,3-triazol-4-yl]ethyl}-5-[2-(trifluoromethyl)pyrimidin-5-yl]-7H-pyrrolo[2,3-d]pyrimidin-4-amine, enantiomer 1], for which the results for the EC50 in experiment [1] and in experiment [2] were 9.97 nM and 23.1 nM, respectively.

On to `CC(c1cc(-c2ccccc2F)no1)n1cc(-c2ccc(Cl)cc2)c2c(N)ncnc21` (single isomer, unassigned; enantiomer 1) [Example 181, (+)-5-(4-Chlorophenyl)-7-{1-[3-(2-fluorophenyl)-1,2-oxazol-5-yl]ethyl}-7H-pyrrolo[2,3-d]pyrimidin-4-amine, enantiomer 1], for which the EC50 in experiment [1] turned out to be 538 nM; in experiment [2] it was 24.5 nM.

For `CC(c1cn(-c2ccccc2F)nn1)n1cc(C2CCC2)c2c(N)ncnc21` (single isomer, unassigned; enantiomer 1) [Example 294, 5-Cyclobutyl-7-{1-[1-(2-fluorophenyl)-1H-1,2,3-triazol-4-yl]ethyl}-7H-pyrrolo[2,3-d]pyrimidin-4-amine, enantiomer 1], the EC50 came out at 167 nM in experiment [1] and 189 nM in experiment [2].

As to `CCC(c1cn(-c2cccc(F)c2F)nn1)n1cc(-c2cncnc2OC)c2c(N)ncnc21` (single isomer, unassigned; enantiomer 1) [Example 305, (−) 7-{1-[1-(2,3-Difluorophenyl)-1H-1,2,3-triazol-4-yl]propyl}-5-(4-methoxypyrimidin-5-yl)-7H-pyrrolo[2,3-d]pyrimidin-4-amine, enantiomer 1], the EC50 in experiment [1] came to 545 nM; in experiment [2], 372 nM.

In the case of `CCC(c1cn(-c2cc(F)ccc2F)nn1)n1cc(-c2cncnc2OC)c2c(N)ncnc21` (single isomer, unassigned; enantiomer 1) [Example 307, (+) 7-{1-[1-(2,5-Difluorophenyl)-1H-1,2,3-triazol-4-yl]propyl}-5-(4-methoxypyrimidin-5-yl)-7H-pyrrolo[2,3-d]pyrimidin-4-amine, enantiomer 1], the results for the EC50 in experiment [1] and in experiment [2] were 45.8 nM and 55.4 nM, respectively.

Consider `CCC(c1cn(-c2ccc(OC)nc2)nn1)n1cc(-c2cnc(C(F)(F)F)nc2)c2c(N)ncnc21` (single isomer, unassigned; enantiomer 1) [Example 309, 7-{1-[1-(6-Methoxypyridin-3-yl)-1H-1,2,3-triazol-4-yl]propyl}-5-[2-(trifluoromethyl)pyrimidin-5-yl]-7H-pyrrolo[2,3-d]pyrimidin-4-amine, enantiomer 1], for which the EC50 in experiment [1] and in experiment [2] was 69 nM each time.

Turning to `CCC(c1cn(-c2cc(F)cc(F)c2)nn1)n1cc(-c2cnc(C(F)(F)F)nc2)c2c(N)ncnc21` (single isomer, unassigned; enantiomer 1) [Example 311, 7-{1-[1-(3,5-Difluorophenyl)-1H-1,2,3-triazol-4-yl]propyl}-5-[2-(trifluoromethyl)pyrimidin-5-yl]-7H-pyrrolo[2,3-d]pyrimidin-4-amine, enantiomer 1], the EC50 is 250 nM in experiment [1] and 111 nM in experiment [2].

With `CC(c1cn(-c2ccc(F)cc2F)nn1)n1c(C#N)c(-c2ccc(OC3CC3)nc2)c2c(N)ncnc21` (single isomer, unassigned; enantiomer 1) [Example 320, 4-Amino-5-[6-(cyclopropyloxy)pyridin-3-yl]-7-{1-[1-(2,4-difluorophenyl)-1H-1,2,3-triazol-4-yl]ethyl}-7H-pyrrolo[2,3-d]pyrimidine-6-carbonitrile, enantiomer 1], the values for the EC50 in experiment [1] and in experiment [2] were 120 nM and 46.2 nM, respectively.

For `CCC(c1cn(-c2ccc(F)c(F)c2)nn1)n1c(C#N)c(-c2cnc(C(F)(F)F)nc2)c2c(N)ncnc21` (single isomer, unassigned; enantiomer 1) [Example 322, 4-Amino-7-{1-[1-(3,4-difluorophenyl)-1H-1,2,3-triazol-4-yl]propyl}-5-[2-(trifluoromethyl)pyrimidin-5-yl]-7H-pyrrolo[2,3-d]pyrimidine-6-carbonitrile, enantiomer 1], the results for the EC50 in experiment [1] and in experiment [2] were 49.9 nM and 33.8 nM, respectively.

As to `COc1ncccc1-c1cn(C(C)c2cn(-c3ccccc3F)nn2)c2ncnc(N)c12` (single isomer, unassigned; enantiomer 2) [Example 114, (+) 7-{1-[1-(2-Fluorophenyl)-1H-1,2,3-triazol-4-yl]ethyl}-5-(2-methoxypyridin-3-yl)-7H-pyrrolo[2,3-d]pyrimidin-4-amine, enantiomer 2], the EC50 came to 36.2 nM in experiment [1] and 75.8 nM in experiment [2].

On to `CC(c1cn(-c2ccccc2F)nn1)n1cc(-c2ccc(C#N)c(F)c2)c2c(N)ncnc21` (single isomer, unassigned; enantiomer 2) [Example 116, 4-(4-Amino-7-{1-[1-(2-fluorophenyl)-1H-1,2,3-triazol-4-yl]ethyl}-7H-pyrrolo[2,3-d]pyrimidin-5-yl)-2-fluorobenzonitrile, enantiomer 2], for which the EC50 in experiment [1] stood at 36 nM; in experiment [2], 26 nM.

With `CC(c1cn(-c2ccccc2F)nn1)n1cc(-c2ccc(OC3CC3)cc2)c2c(N)ncnc21` (single isomer, unassigned; enantiomer 2) [Example 118, (−) 5-[4-(Cyclopropyloxy)phenyl]-7-{1-[1-(2-fluorophenyl)-1H-1,2,3-triazol-4-yl]ethyl}-7H-pyrrolo[2,3-d]pyrimidin-4-amine, enantiomer 2], the EC50 in experiment [1] came to 378 nM; in experiment [2] it was 162 nM.
